# Molecular target: hepatitis C virus RNA dependant polymerase (NS5B) (Hepatitis C virus genotype 1b, UniProt P26663)
# Assay: Inhibition of NS5B RNA dependent RNA polymerase activity
# Assay type: biochemical
# Conditions: Table 3; HCV NS5B polymerase
# Experimental: A suitable assay is described in the examples.
# Inhibition of NS5B RNA Dependent RNA Polymerase Activity
# The compounds of the invention were tested for inhibitory activity against the hepatitis C virus RNA dependant polymerase (NS5B), according to protocol described in WO 03/010141
# hepatitis C virus RNA dependant polymerase (NS5B), sequence (P26663 2420-3010): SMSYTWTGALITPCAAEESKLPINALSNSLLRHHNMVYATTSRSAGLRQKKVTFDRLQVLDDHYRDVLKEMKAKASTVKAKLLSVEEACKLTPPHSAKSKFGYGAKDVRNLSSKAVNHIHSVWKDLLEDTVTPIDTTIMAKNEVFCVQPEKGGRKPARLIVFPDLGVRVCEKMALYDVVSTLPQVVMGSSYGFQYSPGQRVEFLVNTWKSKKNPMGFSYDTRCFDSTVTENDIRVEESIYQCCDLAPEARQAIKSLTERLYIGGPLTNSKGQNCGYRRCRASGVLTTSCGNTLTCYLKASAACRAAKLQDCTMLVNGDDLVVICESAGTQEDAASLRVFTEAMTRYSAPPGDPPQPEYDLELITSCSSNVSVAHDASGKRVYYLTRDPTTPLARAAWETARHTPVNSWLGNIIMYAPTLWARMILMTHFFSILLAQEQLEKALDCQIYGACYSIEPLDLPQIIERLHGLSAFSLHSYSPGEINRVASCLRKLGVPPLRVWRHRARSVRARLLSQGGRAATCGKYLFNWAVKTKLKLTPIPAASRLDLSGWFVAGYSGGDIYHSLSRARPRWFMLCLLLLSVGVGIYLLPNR
row,Compound,IC50 [µM]
1,O=C(O)/C=C/c1ccc(NC(=O)C2(NC(=O)c3ccc4c(C5CCCC5)c(-c5ccccn5)n(CC(=O)N5CCCC5)c4c3)CCC2)cc1 [Example 3010],< 0.2
2,O=C(O)C=Cc1ccc(NC(=O)C2(NC(=O)c3ccc4c(C5CCCC5)c(-c5ccccn5)n(CC(=O)N5CCCCC5)c4c3)CCC2)cc1 [Example 3011],< 0.2

# Same assay, conditions: Table 4; class ranges
row,Compound,IC50 [µM]
1,CN1CCN(C(=O)Cn2c(-c3ccccn3)c(C3CCCCC3)c3ccc(C(N)=O)cc32)CC1 [Example 4001],1 to 10
2,COc1ccc(CNC(=O)c2ccc3c(C4CCCCC4)c(-c4ccccn4)n(CC(=O)N4CCN(C)CC4)c3c2)cc1OC [Example 4002],0.2 to 1
3,COc1ccc(CNC(=O)c2ccc3c(C4CCCCC4)c(-c4ccoc4)n(CC(=O)N4CCN(C)CC4)c3c2)cc1OC [Example 4003],< 0.2
4,COc1ccc(CNC(=O)c2ccc3c(C4CCCCC4)c(-c4ccoc4)n(CC(=O)N4CCC(N5CCCC5)CC4)c3c2)cc1OC [Example 4004],< 0.2
5,C[C@@H](NC(=O)c1ccc2c(C3CCCCC3)c(-c3ccoc3)n(CC(=O)N3CCC(N4CCCC4)CC3)c2c1)c1ccccc1 [Example 4005],< 0.2
6,COc1ccc(CNC(=O)c2ccc3c(C4CCCCC4)c(-c4ccoc4)n(CC(=O)N4CCOCC4)c3c2)cc1OC [Example 4006],< 0.2
7,C[C@@H](NC(=O)c1ccc2c(C3CCCCC3)c(-c3ccoc3)n(CC(=O)N3CCOCC3)c2c1)c1ccccc1 [Example 4007],0.2 to 1
8,CN1CCN(C(=O)Cn2c(-c3ccoc3)c(C3CCCCC3)c3ccc(C(=O)NC4CCCC4)cc32)CC1 [Example 4008],0.2 to 1
9,CN1CCN(C(=O)Cn2c(-c3ccoc3)c(C3CCCCC3)c3ccc(C(=O)NCCC4CCCN4C)cc32)CC1 (centres unmarked) [Example 4009],0.2 to 1
10,CCN1CCCC1CNC(=O)c1ccc2c(C3CCCCC3)c(-c3ccoc3)n(CC(=O)N3CCN(C)CC3)c2c1 (centres unmarked) [Example 4010],0.2 to 1
11,CN1CCN(C(=O)Cn2c(-c3ccoc3)c(C3CCCCC3)c3ccc(C(=O)NCc4ccco4)cc32)CC1 [Example 4011],0.2 to 1
12,CC(C)C(CO)NC(=O)c1ccc2c(C3CCCCC3)c(-c3ccoc3)n(CC(=O)N3CCN(C)CC3)c2c1 (centres unmarked) [Example 4012],0.2 to 1
13,CN1CCN(C(=O)Cn2c(-c3ccoc3)c(C3CCCCC3)c3ccc(C(=O)NCc4ccc5c(c4)OCO5)cc32)CC1 [Example 4013],0.2 to 1
14,CN1CCN(C(=O)Cn2c(-c3ccoc3)c(C3CCCCC3)c3ccc(C(=O)NCCN4CCOCC4)cc32)CC1 [Example 4014],0.2 to 1
15,CN1CCN(C(=O)Cn2c(-c3ccoc3)c(C3CCCCC3)c3ccc(C(=O)NCc4ccccn4)cc32)CC1 [Example 4015],0.2 to 1
16,CN1CCN(C(=O)Cn2c(-c3ccoc3)c(C3CCCCC3)c3ccc(C(=O)NCCc4ccccn4)cc32)CC1 [Example 4016],0.2 to 1
17,CN1CCN(C(=O)Cn2c(-c3ccoc3)c(C3CCCCC3)c3ccc(C(=O)NCc4cccnc4)cc32)CC1 [Example 4017],0.2 to 1
18,CN1CCN(C(=O)Cn2c(-c3ccoc3)c(C3CCCCC3)c3ccc(C(=O)NCc4ccncc4)cc32)CC1 [Example 4018],0.2 to 1
19,CN1CCN(C(=O)Cn2c(-c3ccoc3)c(C3CCCCC3)c3ccc(C(=O)NC(C)(C)CO)cc32)CC1 [Example 4019],0.2 to 1
20,COCC(C)NC(=O)c1ccc2c(C3CCCCC3)c(-c3ccoc3)n(CC(=O)N3CCN(C)CC3)c2c1 (centres unmarked) [Example 4020],0.2 to 1
21,CN1CCN(C(=O)Cn2c(-c3ccoc3)c(C3CCCCC3)c3ccc(C(=O)NCc4ccccc4)cc32)CC1 [Example 4021],0.2 to 1

row,Compound,IC50 [µM]
1,CN1CCN(C(=O)Cn2c(-c3ccoc3)c(C3CCCCC3)c3ccc(C(=O)NCc4ccc(F)cc4)cc32)CC1 [Example 4022],0.2 to 1
2,CN1CCN(C(=O)Cn2c(-c3ccoc3)c(C3CCCCC3)c3ccc(C(=O)NCC(O)c4ccccc4)cc32)CC1 (centres unmarked) [Example 4023],0.2 to 1
3,CC(CNC(=O)c1ccc2c(C3CCCCC3)c(-c3ccoc3)n(CC(=O)N3CCN(C)CC3)c2c1)c1ccccc1 (centres unmarked) [Example 4024],1 to 10
4,CN(C)CCNC(=O)c1ccc2c(C3CCCCC3)c(-c3ccoc3)n(CC(=O)N3CCN(C)CC3)c2c1 [Example 4025],0.2 to 1
5,CN1CCN(C(=O)Cn2c(-c3ccoc3)c(C3CCCCC3)c3ccc(C(=O)NCCc4ccccc4)cc32)CC1 [Example 4026],1 to 10
6,CN1CCN(C(=O)Cn2c(-c3ccoc3)c(C3CCCCC3)c3ccc(C(=O)NC4(CO)CCCC4)cc32)CC1 [Example 4027],0.2 to 1
7,CNC(=O)c1ccc2c(C3CCCCC3)c(-c3ccoc3)n(CC(=O)N3CCN(C)CC3)c2c1 [Example 4028],0.2 to 1
8,CN1CCN(C(=O)Cn2c(-c3ccoc3)c(C3CCCCC3)c3ccc(C(=O)NCc4ccc(O)c(O)c4)cc32)CC1 [Example 4029],< 0.2
9,COc1cc(CNC(=O)c2ccc3c(C4CCCCC4)c(-c4ccoc4)n(CC(=O)N4CCN(C)CC4)c3c2)ccc1O [Example 4030],< 0.2
10,CN1CCN(C(=O)Cn2c(-c3ccoc3)c(C3CCCCC3)c3ccc(C(=O)NCC(=O)c4ccccc4)cc32)CC1 [Example 4031],0.2 to 1
11,CN1CCN(C(=O)Cn2c(-c3ccoc3)c(C3CCCCC3)c3ccc(C(=O)NCc4ccc(S(N)(=O)=O)cc4)cc32)CC1 [Example 4032],< 0.2
12,CN1CCN(C(=O)Cn2c(-c3ccoc3)c(C3CCCCC3)c3ccc(C(=O)NC4CCS(=O)(=O)C4)cc32)CC1 (centres unmarked) [Example 4033],1 to 10
13,CN1CCN(C(=O)Cn2c(-c3ccoc3)c(C3CCCCC3)c3ccc(C(=O)NCC4CC4)cc32)CC1 [Example 4034],0.2 to 1
14,CN1CCN(C(=O)Cn2c(-c3ccoc3)c(C3CCCCC3)c3ccc(C(=O)NCCc4ccncc4)cc32)CC1 [Example 4035],0.2 to 1
15,CN1CCN(C(=O)Cn2c(-c3ccoc3)c(C3CCCCC3)c3ccc(C(=O)NC4CCN(Cc5ccccc5)C4)cc32)CC1 (centres unmarked) [Example 4036],0.2 to 1
16,CN1CCN(C(=O)Cn2c(-c3ccoc3)c(C3CCCCC3)c3ccc(C(=O)NC(C)(C)Cc4ccccc4)cc32)CC1 [Example 4037],1 to 10
17,C[C@@H](NC(=O)c1ccc2c(C3CCCCC3)c(-c3ccoc3)n(CC(=O)N3CCN(C)CC3)c2c1)c1ccccc1 [Example 4039],0.2 to 1
18,CN1CCN(C(=O)Cn2c(-c3ccoc3)c(C3CCCCC3)c3ccc(C(=O)NCCc4cccnc4)cc32)CC1 [Example 4040],0.2 to 1
19,CN1CCN(C(=O)Cn2c(-c3ccoc3)c(C3CCCCC3)c3ccc(C(=O)NCc4ccc(S(C)(=O)=O)cc4)cc32)CC1 [Example 4041],< 0.2
20,COc1cccc([C@@H](C)NC(=O)c2ccc3c(C4CCCCC4)c(-c4ccoc4)n(CC(=O)N4CCN(C)CC4)c3c2)c1 [Example 4042],< 0.2
21,COc1ccc([C@@H](C)NC(=O)c2ccc3c(C4CCCCC4)c(-c4ccoc4)n(CC(=O)N4CCN(C)CC4)c3c2)cc1 [Example 4043],< 0.2

row,Compound,IC50 [µM]
1,Cc1cnc(CNC(=O)c2ccc3c(C4CCCCC4)c(-c4ccoc4)n(CC(=O)N4CCN(C)CC4)c3c2)cn1 [Example 4044],0.2 to 1
2,O=C(NCc1ccc2c(c1)OCO2)c1ccc2c(C3CCCCC3)c(-c3ccoc3)n(CC(=O)N3CCOCC3)c2c1 [Example 4045],0.2 to 1
3,O=C(NCc1ccccn1)c1ccc2c(C3CCCCC3)c(-c3ccoc3)n(CC(=O)N3CCOCC3)c2c1 [Example 4046],0.2 to 1
4,O=C(NCc1ccccc1)c1ccc2c(C3CCCCC3)c(-c3ccoc3)n(CC(=O)N3CCOCC3)c2c1 [Example 4047],0.2 to 1
5,O=C(NCCc1ccccc1)c1ccc2c(C3CCCCC3)c(-c3ccoc3)n(CC(=O)N3CCOCC3)c2c1 [Example 4048],1 to 10
6,CNC(=O)c1ccc2c(C3CCCCC3)c(-c3ccoc3)n(CC(=O)N3CCOCC3)c2c1 [Example 4049],0.2 to 1
7,O=C(NCCc1ccncc1)c1ccc2c(C3CCCCC3)c(-c3ccoc3)n(CC(=O)N3CCOCC3)c2c1 [Example 4050],0.2 to 1
8,COc1ccc([C@@H](C)NC(=O)c2ccc3c(C4CCCCC4)c(-c4ccoc4)n(CC(=O)N4CCOCC4)c3c2)cc1 [Example 4051],0.2 to 1
9,CN(C)C(=O)Cn1c(-c2ccoc2)c(C2CCCCC2)c2ccc(C(=O)NCc3ccc4c(c3)OCO4)cc21 [Example 4052],0.2 to 1
10,CN(C)C(=O)Cn1c(-c2ccoc2)c(C2CCCCC2)c2ccc(C(=O)NCc3ccccn3)cc21 [Example 4053],0.2 to 1
11,CN(C)C(=O)Cn1c(-c2ccoc2)c(C2CCCCC2)c2ccc(C(=O)NCc3ccccc3)cc21 [Example 4054],0.2 to 1
12,CN(C)C(=O)Cn1c(-c2ccoc2)c(C2CCCCC2)c2ccc(C(=O)NCCc3ccccc3)cc21 [Example 4055],0.2 to 1
13,CNC(=O)c1ccc2c(C3CCCCC3)c(-c3ccoc3)n(CC(=O)N(C)C)c2c1 [Example 4056],0.2 to 1
14,CN(C)C(=O)Cn1c(-c2ccoc2)c(C2CCCCC2)c2ccc(C(=O)NCCc3ccncc3)cc21 [Example 4057],0.2 to 1
15,C[C@@H](NC(=O)c1ccc2c(C3CCCCC3)c(-c3ccoc3)n(CC(=O)N(C)C)c2c1)c1ccccc1 [Example 4058],< 0.2
16,COc1ccc([C@@H](C)NC(=O)c2ccc3c(C4CCCCC4)c(-c4ccoc4)n(CC(=O)N(C)C)c3c2)cc1 [Example 4059],< 0.2
17,CC(C)(NC(=O)c1ccc2c(C3CCCCC3)c(-c3ccoc3)n(CC(=O)N3CCC(N4CCCC4)CC3)c2c1)c1ccccc1 [Example 4060],0.2 to 1
18,O=C(NCc1ccc(O)c(O)c1)c1ccc2c(C3CCCCC3)c(-c3ccoc3)n(CC(=O)N3CCOCC3)c2c1 [Example 4062],< 0.2
19,COc1ccc([C@@H](C)NC(=O)c2ccc3c(C4CCCCC4)c(-c4ccoc4)n(CC(=O)N4CCOCC4)c3c2)cc1OC [Example 4063],0.2 to 1
20,COc1cc(CNC(=O)c2ccc3c(C4CCCCC4)c(-c4ccoc4)n(CC(=O)N4CCOCC4)c3c2)ccc1O [Example 4064],0.2 to 1
21,O=C(NC(=O)c1ccc2c(C3CCCCC3)c(-c3ccoc3)n(CC(=O)N3CCOCC3)c2c1)c1ccccc1 [Example 4065],1 to 10

# Reference: patent US7888363B2, “Viral polymerase inhibitors” (Boehringer Ingelheim International GmbH, priority 2003, dated 2011)
